Reference: US9457022B2, “Methods and compositions for treating or preventing symptoms of hormonal variations” (priority 2010, dated 2016)
Read-outs that look alike come from different tables or passages of the source.

Columns and labels:
[1] = tested on: hot flashes, night sweats and other menopausal symptoms; settings: for Impact on reducing the menopausal symptoms (hot flashes, night sweats): 2009, patient on Tamoxifen, Clonidine given with Vitamin E
Description: One of ordinary skill in the art would appreciate that this specific example is not intended to limit the scope of the invention.
In September of 1993, a person who had been experiencing severe menstrual cycles required a partial hysterectomy. […] Approximately a year after surgery, they were placed on Cenestin™ (a kind of hormone replacement therapy, i.e., “HRT”).
At this time, the patient began taking dosages of Wellbutrin™ and receiving another hormone replacement therapy of estrogen and testosterone to treat the hot flashes, night sweats and other menopausal symptoms.
In November of 2008, the patient was diagnosed with Stage 2 breast cancer and the HRT was discontinued immediately. Subsequently, the patient underwent a lumpectomy and the removal of fourteen lymph nodes (one tested positive).
In December 2008, the patient went through an intense treatment of chemotherapy which lasted until April 2009. At this time, a less intense chemotherapy treatment was continued until November 2009. The patient also received radiation therapy from April 2009 until June 2009. At the end of the radiation therapy, the patient was started on a regimen of Tamoxifen™.
Clonidine™ is a direct-acting α2 adrenergic agonist that is used to treat several medical conditions. […] Both the Clonidine™ and the Wellbutrin™ were discontinued in June 2009.
It was originally developed for the treatment of epilepsy, and currently, gabapentin is widely used to relieve pain, especially neuropathic pain. […] At this time, the patient was treated with Effexor™ (generic name Venlafaxine), a medication which is used primarily for the treatment of major depression, generalized anxiety disorder, social anxiety disorder, obsessive—compulsive disorder, panic disorder, and menopausal hot flashes in adults.
At this time, the patient began Wellbutrin™ again to treat the hot flashes, night sweats and other menopausal symptoms.
The dosage continued and remained the same for another 5 days.

hot flashes [2] = test: Dextromethorphan HBr in menopausal women with no breast cancer history; severity and frequency of hot flashes; assay type: in vivo, human; settings: 15 mg in the morning and 15 mg in the evening; summary of Table 1
Description: The dosage given in these test cases was 15 mg in the morning and 15 mg in the evening of Dextromethorphan, e.g., DextromethorphanHBr. The decrease in the symptoms of hormonal variation was noted by assessing the severity and frequency of hot flashes.

hot flashes [3] = settings: cited from earlier work
hot flashes [4] = settings: men; double blind, cross over study; cited from earlier work

With `COc1ccc2c(c1)[C@]13CCCC[C@@H]1[C@H](C2)N(C)CC3` [Dextromethorphan HBr] the “Hot flashes, night sweats and other menopausal symptoms” value ([1]; 30 mg per day (15 mg every 12 hours), by the third day) was “totally gone”, the “Occurrence of hot flashes, night sweats and other menopausal symptoms” value ([1]; 30 mg per day (15 mg every 12 hours), two days after starting) was “reduced significantly” and the “Time to reoccurrence of menopausal symptoms after discontinuation” value ([1]; after 8 days of 30 mg per day) was at most 24 h. For the same compound, the “Hot flashes, night sweats and menopausal symptoms after Wellbutrin was discontinued” value ([1]; continuing Dextromethorphan HBr alone) was “did not reoccur”, the “Time to elimination of symptoms after again commencing treatment” value ([1]; human, in vivo) was at most 24 h and the “Women who no longer had hot flashes when on Dextromethorphan” value (hot flashes [2]) was “four out of the five”.
In the case of `CNCCC(Oc1ccc(C(F)(F)F)cc1)c1ccccc1` (stereo not drawn) [Fluoxetine], the “Reduction in hot-flash scores” value (hot flashes [3]; 20 mg/day, placebo 36%) is listed as 50%.
In the case of `CC/C(=C(\c1ccccc1)c1ccc(OCCN(C)C)cc1)c1ccccc1` [Tamoxifen™, tamoxifen], the “Hot flashes, night sweats and other menopausal symptoms since commencing treatment” value ([1]; human, in vivo) is reported as “increased in intensity”.
For `CC(NC(C)(C)C)C(=O)c1cccc(Cl)c1` (stereo not drawn) [Wellbutrin™, bupropian], the “Impact on reducing the menopausal symptoms (hot flashes, night sweats)” value [1] was “no impact” and the “Frequency and intensity of hot flashes, night sweats and other menopausal symptoms (patient report)” value ([1]; Wellbutrin together with hormone replacement therapy of estrogen and testosterone, from 2006) was “markedly reduced”.
In the case of `Clc1cccc(Cl)c1N=C1NCCN1` [clonidine], the “Impact on reducing the menopausal symptoms (hot flashes, night sweats)” value [1] is given as “no impact”, the “Adverse effects (dry mouth, dizziness, blurred vision)” value (hot flashes [3]; randomized clinical trials) is given as “common” and the “Efficacy versus placebo in preventing hot flashes” value (hot flashes [3]; randomized clinical trials) is given as “moderately more efficacious than placebo”. The “Decrease of hot flash frequency greater than that seen with placebo” value (hot flashes [3]; women treated with clonidine) was 10-15% and the “Difference from placebo effect in self-reported hot flash frequency” value (hot flashes [4]) was “not statistically significant”.
In the case of `NCC1(CC(=O)O)CCCCC1` [gabapentin], the “Impact on reducing the menopausal symptoms (hot flashes, night sweats)” value [1] is given as “no impact” and the “Reduction of incidence of hot flashes” value (hot flashes [3]; pilot trials) is given as 42%-70%.
For `CC(=O)O[C@]1(C(C)=O)CC[C@H]2[C@@H]3C=C(C)C4=CC(=O)CC[C@]4(C)[C@H]3CC[C@@]21C` [megestrol acetate], the “Reduction in self-reported hot flash frequency” value (hot flashes [3]; men and women, placebo 20%) is listed as about 80%.
For `COc1ccc(C(CN(C)C)C2(O)CCCCC2)cc1` (stereo not drawn) [venlafaxine], the “Impact on reducing the menopausal symptoms (hot flashes, night sweats)” value [1] is given as “no impact”, the “Reduction in hot-flash scores” value (hot flashes [3]; randomized clinical trial, low dose (37.5 mg/day), placebo 27%) is given as 37% and the “Reduction in hot-flash scores” value (hot flashes [3]; randomized clinical trial, moderate and high doses (75 and 150 mg/day), statistically significant) is given as 61%.
